Earlier results in patent publication US9101669B2, “Self-assembed conjugate and use thereof” (POSTECH ACADEMY-INDUSTRY FOUNDATION, priority 2012, dated 2015).

Conditions: 1 to 1 host-guest complex, protonated forms, aqueous solution

Row | SMILES | binding constant
1 | NCCCCCCN [DAH, 1,6-diaminohexane] | up to 10^10 M^−1
2 | NCCCNCCCCNCCCN [SPM, spermine] | ≤ 10^12 M^−1
